In US8859599B2, “Androgen receptor modulating compounds, preparation and uses thereof” (priority 2009, dated 2014):
Where two headings read alike, the source gives them in different places.

Key:
[1] = test system: LNCaP cells; test: Sulforhodamine B (SRB) in vitro chemosensitivity assay on LNCaP cells; format: cell-based; conditions: for cytostatic effect: suppression of cell growth: highest concentration tested
Description: Sulforhodamine B (SRB) assay was used according to the method by Skehan et al. (JNCI, 1990). Briefly, cells were collected by trypsinization, counted and plated at a density of 5,000 cells/well in 96-well flat-bottomed microtiter plates (100 μl of cell suspension/well). In the chemosensitivity assay, experiments were run in octuplicate, and each experiment was repeated three times. The optical density (OD) of cells was determined at a wavelength of 490 nm by a colorimetric plate reader.
Growth inhibition and cytocidal effect of drugs were calculated according to the formula reported by Monks et al. (JNCI, 1991): [(ODtreated−ODzero)/(ODcontrol−ODzero)]×100%, when ODtreated is > to ODzero. If ODtreated is above ODzero, treatment has induced a cytostatic effect, whereas if ODtreated is below ODzero, cell killing has occurred. The ODzero depicts the cell number at the moment of drug addition, the ODcontrol reflects the cell number in untreated wells and the ODtreated reflects the cell number in treated wells on the day of the assay. TUNEL Assay
The authors examined the antitumour activity of the compounds for which the synthesis is described above, in the hormone-sensitive prostate cancer cell line LNCaP. (R)-Bicalutamide and the novel compounds were tested at the increasing concentrations of […]. The highest dose used was chosen on the basis of the clinically achievable peak plasma concentration reported in the literature for bicalutamide (Cockshott I D. Clin Pharmacokinet. 2004; 43 (13) 855-78).
After 144-hr exposure time, the cytotoxic effect of the molecules was calculated according to the method of Monks et al. (Monks A, et al., J. Nat. Cancer Inst. 1991; 83: 757-66).

[2] = biological target: T1, human androgen receptor (hAR) (Homo sapiens, UniProt P10275); test: hAR transactivation assay (ARE-luciferase reporter) in Cos-7 cells; format: cell-based; conditions: for inhibition of androgen-induced transcriptional activation (antagonistic activity): cells challenged with 10 nM R1881, compound at 10 μM
T1 construct: The cDNA coding hAR was cloned into the pSG5 expression vector as reported previously; expressed in transfected cells; host or cells: Cos-7 cells transiently transfected with pSG5-hAR
T1 sequence (P10275 1-920): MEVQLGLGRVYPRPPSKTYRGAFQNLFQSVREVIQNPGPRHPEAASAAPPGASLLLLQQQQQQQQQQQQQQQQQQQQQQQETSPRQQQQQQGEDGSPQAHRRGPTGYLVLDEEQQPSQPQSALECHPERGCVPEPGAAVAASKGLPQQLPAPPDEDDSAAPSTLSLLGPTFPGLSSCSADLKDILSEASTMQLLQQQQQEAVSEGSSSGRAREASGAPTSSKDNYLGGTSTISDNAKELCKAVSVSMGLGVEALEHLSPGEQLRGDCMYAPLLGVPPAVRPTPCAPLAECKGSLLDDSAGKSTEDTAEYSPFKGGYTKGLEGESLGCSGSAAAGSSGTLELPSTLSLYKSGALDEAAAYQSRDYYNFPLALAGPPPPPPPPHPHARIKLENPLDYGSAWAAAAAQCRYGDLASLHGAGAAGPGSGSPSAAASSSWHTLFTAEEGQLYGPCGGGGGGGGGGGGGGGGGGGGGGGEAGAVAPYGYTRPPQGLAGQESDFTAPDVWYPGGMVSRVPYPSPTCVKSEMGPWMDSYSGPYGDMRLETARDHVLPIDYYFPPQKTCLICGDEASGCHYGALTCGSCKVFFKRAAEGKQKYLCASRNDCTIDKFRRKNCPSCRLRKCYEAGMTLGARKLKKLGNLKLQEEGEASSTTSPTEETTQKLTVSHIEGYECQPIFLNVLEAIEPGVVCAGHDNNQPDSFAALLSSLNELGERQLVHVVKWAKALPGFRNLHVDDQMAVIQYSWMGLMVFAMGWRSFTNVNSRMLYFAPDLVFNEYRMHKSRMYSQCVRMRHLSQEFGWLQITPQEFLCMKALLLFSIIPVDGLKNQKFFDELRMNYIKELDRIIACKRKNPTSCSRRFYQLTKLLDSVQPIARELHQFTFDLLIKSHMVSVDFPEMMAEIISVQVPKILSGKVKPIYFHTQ
Description: The cDNA coding hAR was cloned into the pSG5 expression vector as reported previously [Chang, C. S., et al., Science (1988)240:324-326]. The 3416 construct (ARE-Luc), containing four copies of the wild-type slp-HRE2 (5′-TGGTCAgccAGTTCT-3′) (SEQ ID No. 1) was cloned in the NheI site in pTK-TATA-Luc [Verrijdt, G. et al., J. Biol. Chem. (2000)275:12298-12305].
For androgen-stimulated transcriptional analysis, 32×10^4 Cos-7 cells were plated in phenol red-free DMEM containing 5% charcoal-stripped serum. After 48 h, the cells were transfected by Superfect (Qiagen) with 0.3 μg of 3416-pTK-TATA-Luc construct, together with 1.5 μg of either pSG5-empty plasmid or pSG5-hAR expressing plasmid. After 18 h, transfected cells were stimulated for 24 h with 10 nM of the synthetic androgen, R1881 (from Perkin-Elmer; dissolved in 0.001% ethanol, final concentration), in the absence or presence of the indicated concentrations of synthetic compounds. When indicated, the synthetic compounds were added alone to the cell medium. […] It was dissolved in 0.001% (final concentration) ethanol. Control cells were treated with the vehicle alone. Lysates were prepared and the luciferase activity was measured using a luciferase assay system (Promega). The results were corrected using CH110-expressed beta-galactosidase activity (Amersham Biosciences) and luciferase activity was expressed as fold induction. Results were obtained from two or three different experiments, each performed in duplicate. Mean and SEM are shown.

[3] = test system: LNCaP-AR cells; test: TUNEL assay of apoptotic cells in LNCaP-AR; format: cell-based, human; conditions: 144 h, 20.0 μM
[4] = Homo sapiens, LNCaP cells, 144 h exposure, read-out: Growth inhibition (GI50)
[5] = LNCaP cells, 144 h exposure, n.r. = not reached
[6] = Homo sapiens, LNCaP, 144 h, read-out: Growth inhibition (GI50), LNCaP cells, 144 h exposure

With `C[C@@]1(CS(=O)(=O)c2ccc(F)cc2)C(=O)N(c2ccc(C#N)c(C(F)(F)F)c2)C(=S)N1S(C)(=O)=O` [(S)-30] the “cytocidal effects by 50% (LC50)” value [1] was “n.r” and the “Growth inhibition (GI50)” value ([1]; LNCaP cells, 144 h exposure) was “n.r”.
In the case of `C[C@]1(CS(=O)(=O)c2ccc(F)cc2)C(=O)N(c2ccc(C#N)c(C(F)(F)F)c2)C(=O)N1S(C)(=O)=O` [(R)-29], the “cytocidal effects by 50% (LC50)” value [1] is reported as “n.r” and the GI50 [1, 4] is reported as 12.3 µM.
For `C[C@]1(CS(=O)(=O)c2ccc(F)cc2)NC(=O)N(c2ccc(C#N)c(C(F)(F)F)c2)C1=O` [(S)-28], the “cytocidal effects by 50% (LC50)” value [1] was “n.r” and the GI50 [1, 4] was 1.8 µM.
For `N#Cc1ccc(N2C(=O)[C@@](CS(=O)(=O)c3ccc(F)cc3)(c3ccccc3)NC2=S)cc1C(F)(F)F` [(R)-13, (R)-4-(4-((4-fluorophenylsulfonyl)methyl)-5-oxo-4-phenyl-2-thioxoimidazolidin-1-yl)-2-(trifluoromethyl)benzonitrile], the “cytocidal effects by 50% (LC50)” value [1] was “n.r” and the GI50 [1, 4] was 14 µM.
With `N#Cc1ccc(N2C(=O)[C@](Cc3ccccc3)(CS(=O)(=O)c3ccc(F)cc3)NC2=S)cc1C(F)(F)F` [(R)-11] the “cytocidal effects by 50% (LC50)” value [1] was “n.r”, the GI50 [1, 4] was 8.5 µM and the “cytocidal (cell killing) activity” value ([1]; LNCaP cells, 144 h exposure) was “cytocidal activity”. For the same compound, the “agonistic activity, compound alone” value ([2]; authors' experimental conditions) was “does not show agonistic activity” and the “inhibition of androgen-induced transcriptional activation (antagonistic activity)” value (“inhibition … (antagonistic activity)” for short) [2] was “strong inhibition”.
In the case of `C[C@@]1(CS(=O)(=O)c2ccc(F)cc2)C(=O)N(c2ccc(C#N)c(C(F)(F)F)c2)C(=O)N1S(C)(=O)=O` [(S)-29], the “cytocidal effects by 50% (LC50)” value [1] is reported as “n.r” and the GI50 [1, 4] is reported as 12.5 µM.
In the case of `N#Cc1ccc(NC(=O)[C@](N)(Cc2ccc(F)cc2)c2ccccc2)cc1C(F)(F)F` [(S)-36], the “cytocidal effects by 50% (LC50)” value [1] is reported as “n.r”, the GI50 [1, 4] is reported as 4.3 µM and the “cytostatic effect: suppression of cell growth” value (shortened to “cytostatic effect: suppression”) ([1]; LNCaP cells, 144 h) is reported as “suppress completely the cell growth”.
With `N#Cc1ccc(NC(=O)[C@](N)(Cc2ccccc2)CS(=O)(=O)c2ccc(F)cc2)cc1C(F)(F)F` [(R)-8, (R)-2-amino-2-benzyl-N-(4-cyano-3-(trifluoromethyl)phenyl)-3-(4-fluorophenylsulfonyl)propanamide] the “cytocidal (cell killing) activity” value ([1]; LNCaP cells, 144 h exposure) was “cytocidal activity”.
In the case of `N#Cc1ccc(NC(=O)C(N)(CS(=O)(=O)c2ccc(F)cc2)c2ccccc2)cc1C(F)(F)F` (stereo in doubt) [(S)-9], the “cytostatic effect: suppression” value ([1]; LNCaP cells, 144 h) is reported as “suppress completely the cell growth”, the “cytocidal effects by 50% (LC50)” value [1, 5] is reported as “n.r” and the GI50 ([1]; read-out: Growth inhibition (GI50), LNCaP cells, 144 h exposure) is reported as 4 µM.
In the case of `C[C@]1(CS(=O)(=O)c2ccc(F)cc2)N=C(SS(C)(=O)=O)N(c2ccc(C#N)c(C(F)(F)F)c2)C1=O` [(S)-31], the “cytocidal effects by 50% (LC50)” value [1] is reported as “n.r” and the “Growth inhibition (GI50)” value ([1]; LNCaP cells, 144 h exposure) is reported as “n.r”.
`N#Cc1ccc(OCC(N)(Cc2ccccc2)C(=O)Nc2ccc(C#N)c(C(F)(F)F)c2)cc1` (stereo in doubt) [(R)-7c] was tested, and the “agonistic activity in presence of Casodex” value ([2]; Casodex at 10 μM) was “inhibited” and the “increase of transcriptional activity of AR, compound alone” value ([2]; range between 10-100 nM) was “about 15 fold”.
For `CS(=O)(=O)N[C@@](CS(=O)(=O)c1ccc(F)cc1)(C(=O)Nc1ccc(C#N)c(C(F)(F)F)c1)c1ccccc1` [(R)-12], the “inhibition … (antagonistic activity)” value [2] was “does not interfere” and the “agonistic activity, compound alone” value ([2]; range between 10 nM-10 μM) was “does not show agonistic activity”.
`C[C@@]1(CS(=O)(=O)c2ccc(F)cc2)NC(=S)N(c2ccc(C#N)c(C(F)(F)F)c2)C1=O` [(R)-27] was tested, and the “cytocidal effects by 50% (LC50)” value [1] was “n.r” and the GI50 [1, 4] was 15.2 µM.
With `C[C@@]1(CS(=O)(=O)c2ccc(F)cc2)NC(=O)N(c2ccc(C#N)c(C(F)(F)F)c2)C1=O` [(R)-28, (R)-4-(4-((4-fluorophenylsulfonyl)methyl)-4-methyl-2,5-dioxoimidazolidin-1-yl)-2-(trifluoromethyl)benzonitrile] the “cytocidal effects by 50% (LC50)” value [1] was “n.r” and the GI50 [1, 4] was 14.9 µM.
With `C[C@@](N)(CS(=O)(=O)c1ccc(F)cc1)C(=O)Nc1ccc(C#N)c(C(F)(F)F)c1` [(S)-23] the GI50 [1, 6] was 9.4 µM and the “cytocidal effects by 50% (LC50)” value [1, 5] was “n.r”.
For `C[C@]1(O)CC[C@H]2[C@@H]3CCC4=CC(=O)CCC4=C3C=C[C@@]21C` [R1881, methyltrienolone-17β-hydroxy-17-methyl-estra-4,9.11-trien-3-one, reference compound], the “increase of AR-mediated transcriptional activation” value ([2]; 10 nM, Cos-7 cells, ARE-reporter gene) was “about 11 fold”.
`N#Cc1ccc(NC(=O)C(N)(Cc2ccccc2)CS(=O)(=O)c2ccc(F)cc2)cc1C(F)(F)F` (stereo in doubt) [(S)-8] was tested, and the “cytocidal effects by 50% (LC50)” value [1] was “n.r”, the GI50 [1, 4] was 10.4 µM and the “cytostatic effect: suppression” value ([1]; LNCaP cells, 144 h) was “suppress completely the cell growth”.
`Cc1ccc(S(=O)(=O)N[C@@](C)(CS(=O)(=O)c2ccc(F)cc2)C(=O)Nc2ccc(C#N)c(C(F)(F)F)c2)cc1` [(R)-26] was tested, and the GI50 [1, 6] was 9.3 µM, the “cytocidal effects by 50% (LC50)” value [1, 5] was “n.r” and the “apoptosis induction in the LNCaP derivative cell line versus LNCaP” value [3] was “more active”. For the same compound, the “inhibition … (antagonistic activity)” value [2] was “does not show antagonistic activity”.
`N#Cc1ccc(OC[C@]2(Cc3ccccc3)NC(=O)N(c3ccc(C#N)c(C(F)(F)F)c3)C2=O)cc1` [(S)-14e] was tested, and the “increase of transcriptional activity of AR, compound alone” value ([2]; 100 nM) was “about 55 fold”.
